Experimental data as given in US9845297B2, “Antimicrobial compounds and methods of making and using the same” (Melinta Therapeutics, Inc., priority 2009, dated 2017).
Read-outs that look alike come from different tables or passages of the source.

System: Eschericia coli strain ATCC25922
Assay: standard microdilution assay to determine minimum inhibitory concentrations (MICs)
Type: cell-based
Settings: Escherichia coli
Procedure, shortened: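 Broth microdilution per CLSI protocols, typically 100 µL final volume, against E. coli ATCC25922. MIC values scored as +/− against a cutoff of 16 micrograms/ml.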

[1] = ATCC25922, Eschericia coli strain ATCC25922, standard microdilution assay, read-out: E. coli ATCC25922 MIC

Row | MIC [1] [µg/mL] | Compound | MIC (ATCC25922, read-out: E. coli ATCC25922 MIC) [µg/mL]
1 | > 16 | NCCCNCc1ccc(-c2c[nH]c(NC(=O)Nc3ccc(OC(F)F)cc3)nc2=O)cc1C(F)(F)F [Compound 270] | –
2 | > 16 | NC[C@@H](N)c1cn(-c2ccc(-n3ccc(NC(N)=O)nc3=O)cc2)nn1 [Compound 150] | –
3 | > 16 | NCCCCNC1CCN(c2c[nH]c(NC(=O)Nc3ccccc3OC(F)(F)F)nc2=O)CC1 [Compound 599] | –
4 | > 16 | O=C(Nc1nc(=O)c(-c2ccc(CNCCCCO)cc2)c[nH]1)Nc1cc(F)c(F)cc1F [Compound 341] | –
5 | > 16 | N=C(N)NCCCNCc1ccc(-c2c[nH]c(NC(=O)Nc3cc(F)c(F)cc3F)nc2=O)cn1 [Compound 585] | –
6 | < 16 | NCCCNCc1ccc(-c2c[nH]c(NC(=O)Nc3cccc(Cl)c3F)nc2=O)cc1F [Compound 450] | –
7 | > 16 | NCCN(CCN)CCCN1CC=C(n2ccc(NC(N)=O)nc2=O)CC1 [Compound 153] | –
8 | > 16 | NCCCN(CCC1CC1)Cc1ccc(-c2c[nH]c(NC(=O)Nc3ccccc3OC(F)(F)F)nc2=O)cc1 [Compound 397] | –
9 | > 16 | NCCCN(CCCN)Cc1ccc(-c2c[nH]c(Nc3nc4ccccc4o3)nc2=O)cc1F [Compound 363] | –
10 | < 16 | NCCCN(Cc1ccc(-c2c[nH]c(NC(=O)Nc3cc(F)c(F)cc3F)nc2=O)cc1)CC1CC1 [Compound 344] | –
11 | > 16 | O=C(Nc1nc(=O)c(-c2ccc(CNCc3ncc[nH]3)cc2)c[nH]1)Nc1ccccc1OC(F)(F)F [Compound 314] | –
12 | > 16 | COc1nc(Nc2nc3ccccc3o2)ncc1-c1ccc(CNCCCN)c(F)c1 [Compound 589] | –
13 | – | CN(C(=O)C[C@H](CCCNC(=N)N)NC(=O)CCCO)C1CNC(NC(N)=O)=NC1=O (stereo partly drawn) [Compound 101] | > 16
14 | > 16 | COc1cc([N+](=O)[O-])ccc1NC(=O)Nc1nc(=O)c(-c2ccc(CNCCCN)c(F)c2)c[nH]1 [Compound 415] | –
15 | > 16 | O=C(Nc1nc(=O)c(-c2ccc(CNCC3CC3)cc2)c[nH]1)Nc1cc(F)c(F)cc1F [Compound 275] | –
16 | > 16 | N=C(N)NCCC[C@@H](CCCn1ccc(NC(=O)Nc2ccc(F)cc2)nc1=O)NCCCN [Compound 148] | –
17 | > 16 | NCCCN(CCC(=O)O)Cc1ccc(-c2c[nH]c(NC(=O)Nc3ccccc3OC(F)(F)F)nc2=O)cc1 [Compound 321] | –
18 | > 16 | COc1cc2nc(Nc3nc(=O)c(-c4ccc(CN(CCCN)CCCN)c(F)c4)c[nH]3)[nH]c2cc1OC [Compound 370] | –
19 | > 16 | NCCCCN1CCC(c2c[nH]c(Nc3nc4ccccc4[nH]3)nc2=O)CC1 [Compound 509] | –
20 | > 16 | NCCCNCc1ccc(-c2c[nH]c(NC(=O)Nc3cc(F)c(F)cc3F)nc2=O)c(F)c1 [Compound 434] | –
21 | < 16 | NCCCNCc1ccc(-c2c[nH]c(Nc3nc4cc(F)c(F)cc4[nH]3)nc2=O)c(F)c1 [Compound 458] | –
22 | < 16 | N=C(N)NCCCN(CCCN)Cc1ccc(-c2c[nH]c(NC(=O)Nc3cc(Cl)cc(Cl)c3)nc2=O)cc1 [Compound 453] | –
23 | > 16 | CN(C(=O)C[C@H](CCCNC(=N)N)NC(=O)CCN1CCNCC1)C1CNC(NC(N)=O)=NC1=O (stereo partly drawn) [Compound 108] | –
24 | > 16 | NCCCCCN1CCN(c2c[nH]c(NC(=O)Nc3ccccc3OC(F)(F)F)nc2=O)CC1 [Compound 518] | –
25 | < 16 | NCCCN(CCCNC(N)N)Cc1ccc(-c2c[nH]c(Nc3nc4ccccc4[nH]3)nc2=O)cc1 [Compound 474] | –
26 | > 16 | N=C(N)NCCCNCc1ccc(-c2c[nH]c(NC(=O)NC3CN(C(=O)c4cc(F)cc(F)c4F)C3)nc2=O)cc1 [Compound 780] | –
27 | > 16 | CC(C)=CCNCc1ccc(-c2c[nH]c(NC(=O)Nc3ccccc3OC(F)(F)F)nc2=O)cc1 [Compound 316] | –

Row | MIC [1] [µg/mL] | Compound | MIC (ATCC25922, read-out: E. coli ATCC25922 MIC) [µg/mL]
28 | > 16 | NCCCN(Cc1ccc(-c2c[nH]c(NC(=O)Nc3cc(F)c(F)cc3F)nc2=O)cc1)Cc1nccs1 [Compound 339] | –
29 | < 16 | NCCCN(CCCN)Cc1c(F)cc(-c2c[nH]c(NC(=O)Nc3cccc(Cl)c3Cl)nc2=O)cc1F [Compound 297] | –
30 | > 16 | N=C(N)NCCCCN[C@@H](CCCNC(=N)N)CCCn1ccc(NC(N)=O)nc1=O [Compound 134] | –
31 | < 16 | NCCCNCc1ccc(-c2c[nH]c(Nc3nc4ccccc4[nH]3)nc2=O)c(F)c1 [Compound 493] | –
32 | > 16 | NCCCN(CCCN)Cc1ccc(-c2c[nH]c(Nc3nc4ccccc4s3)nc2=O)cc1F [Compound 383] | –
33 | < 16 | NCCCN(CCCN)Cc1ccc(-c2c[nH]c(NC(=O)Nc3ccccc3OC(F)(F)F)nc2=O)cc1F [Compound 308] | –
34 | < 16 | CN(C(=O)C[C@H](CCCNC(=N)N)NCCCCNC(=N)N)C1CNC(NC(N)=O)=NC1=O (stereo partly drawn) [Compound 109] | –
35 | > 16 | NCCCNCc1ccc(-n2ccc(NC(N)=O)nc2=O)cc1 [Compound 131] | –
36 | < 16 | NCCCN(CCCN)Cc1ccc(-c2c[nH]c(NC(=O)Nc3cccc(Cl)c3Cl)nc2=O)cc1F [Compound 307] | –
37 | > 16 | Cc1nc(-c2cccc(NC(=O)Nc3nc(=O)c(-c4ccc(CNCCCN)c(F)c4)c[nH]3)c2)cs1 [Compound 424] | –
38 | > 16 | CN(CCCNCc1ccc(-c2c[nH]c(NC(=O)Nc3cc(F)c(F)cc3F)nc2=O)cc1)C(=N)N [Compound 353] | –
39 | > 16 | N=C(N)NCCCCN1CCN(c2c[nH]c(NC(=O)Nc3ccccc3OC(F)(F)F)nc2=O)CC1 [Compound 534] | –
40 | > 16 | Cn1ccnc1CN(CCCN)Cc1ccc(-c2c[nH]c(NC(=O)Nc3ccccc3OC(F)(F)F)nc2=O)cc1 [Compound 345] | –
41 | > 16 | Cc1ncc(-c2cccc(NC(=O)Nc3nc(=O)c(-c4ccc(CNCCCN)c(F)c4)c[nH]3)c2)s1 [Compound 446] | –
42 | > 16 | NCCCNCc1ccc(-c2c[nH]c(NC(=O)Nc3ccccc3OCCCC(=O)O)nc2=O)cc1 [Compound 1297] | –
43 | > 16 | NCCCNCc1ccc(-c2c[nH]c(NC(=O)Nc3ccc(F)c(F)c3F)nc2=O)cc1F [Compound 462] | –
44 | > 16 | NCCCNCc1ccc(-c2c[nH]c(NC(=O)Nc3cc(F)c(F)cc3F)nc2=O)cn1 [Compound 551] | –
45 | > 16 | N=C(N)NCCCCCN1CCC(c2c[nH]c(NC(=O)Nc3cccc(Cl)c3F)nc2=O)CC1 [Compound 583] | –
46 | < 16 | NCCCNCc1ccc(-c2c[nH]c(Nc3nc4cc(F)c(F)cc4o3)nc2=O)c(F)c1 [Compound 467] | –
47 | > 16 | NCc1ccc(-c2c[nH]c(NC(=O)NC3CCCC[C@H]3NCC(F)(F)F)nc2=O)cc1 (stereo partly drawn) [Compound 1357] | –
48 | > 16 | NCCCCCN1CCC(c2c[nH]c(NC(=O)Nc3ccccc3OC(F)(F)F)nc2=O)CC1 [Compound 550] | –
49 | > 16 | NCCCN(Cc1ccc(-c2c[nH]c(NC(=O)Nc3cc(F)c(F)cc3F)nc2=O)cc1)Cc1ncc[nH]1 [Compound 325] | –
50 | > 16 | N=C(N)NCCCCCN1CCC(c2c[nH]c(NC(=O)Nc3cc(F)c(F)cc3F)nc2=O)CC1 [Compound 545] | –
51 | < 16 | Cc1cc(CNCCCN)ccc1-c1c[nH]c(NC(=O)Nc2ccccc2OC(F)(F)F)nc1=O [Compound 500] | –
52 | > 16 | N=C(N)NCCC[C@@H](CCCn1ccc(NC(=O)Nc2ccc(F)cc2F)nc1=O)NCCCN [Compound 159] | –
53 | < 16 | CN(CCCN(CCCN)Cc1ccc(-c2c[nH]c(NC(=O)Nc3ccccc3OC(F)(F)F)nc2=O)cc1)C(=N)N [Compound 365] | –

Row | Compound | MIC [1] [µg/mL] | MIC (ATCC25922, read-out: E. coli ATCC25922 MIC) [µg/mL]
54 | NCCCN1CCN(C(=O)Cc2c[nH]c(NC(=O)Nc3cccc(Cl)c3Cl)nc2=O)CC1 [Compound 408] | > 16 | –
